For orientation: IC50 means the concentration that inhibits the measured activity by half.

Structures are written as SMILES.

Experiment [1] deals with T1, High affinity nerve growth factor receptor (Homo sapiens, UniProt P04629). The experiment in a line: Inhibition of GAL4 fused TrkA (unknown origin) expressed in PC12 cells transfected with pFA2-Elk plasmid and pFR-luciferase plasmid measured for 18 hrs by luciferase reporter gene assay. The experiment is classed as cell-based, Rattus norvegicus, PC-12. In general terms: In a reporter assay the amount or activity of a reporter protein is the signal.
T1 sequence (P04629 whole entry, the tested form may be a part): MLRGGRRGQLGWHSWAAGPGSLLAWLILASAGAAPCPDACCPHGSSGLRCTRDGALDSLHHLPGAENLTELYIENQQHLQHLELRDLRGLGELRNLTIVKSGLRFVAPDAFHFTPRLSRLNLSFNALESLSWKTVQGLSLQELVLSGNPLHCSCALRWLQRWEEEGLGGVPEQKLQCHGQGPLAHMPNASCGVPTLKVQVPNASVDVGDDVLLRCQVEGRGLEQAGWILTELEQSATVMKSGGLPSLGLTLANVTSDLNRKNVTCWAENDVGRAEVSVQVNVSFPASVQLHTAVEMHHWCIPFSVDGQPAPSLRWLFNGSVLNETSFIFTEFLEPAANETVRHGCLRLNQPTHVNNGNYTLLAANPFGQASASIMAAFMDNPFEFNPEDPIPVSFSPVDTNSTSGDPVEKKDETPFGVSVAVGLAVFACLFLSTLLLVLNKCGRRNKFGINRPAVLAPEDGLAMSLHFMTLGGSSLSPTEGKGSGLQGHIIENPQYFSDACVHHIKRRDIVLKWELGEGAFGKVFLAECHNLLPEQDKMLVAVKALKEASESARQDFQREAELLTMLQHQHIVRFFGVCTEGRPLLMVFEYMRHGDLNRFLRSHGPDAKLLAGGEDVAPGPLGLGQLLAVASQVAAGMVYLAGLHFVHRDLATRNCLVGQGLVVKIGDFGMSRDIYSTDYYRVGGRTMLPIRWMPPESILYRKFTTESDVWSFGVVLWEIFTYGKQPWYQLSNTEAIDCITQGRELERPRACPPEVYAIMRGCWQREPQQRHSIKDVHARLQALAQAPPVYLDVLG

The target in experiment [2] is T1, High affinity nerve growth factor receptor. The experiment in a line: Inhibition of TrkA (unknown origin).
Experiment [3] shares this target. The experiment in a line: Inhibition of GST-fused TrkA (unknown origin) expressed in SF9 cells using H2N-RRRAAAEEIYGEINH2 peptide as substrate preincubated with ATP and Mg and measured by microtiter plate reader analysis.

In the case of `Cn1cc(/C=C2\C(=O)Nc3ccccc32)c2ccccc21`, the IC50 in experiment [1] turned out to be 998 nM; in experiment [2] it was 25.7 nM.

In turn, `O=C1Nc2ccccc2/C1=C\c1c(Cl)[nH]c2ccccc12` had an IC50 in experiment [2] of more than 10000 nM.

As for `NS(=O)(=O)c1ccc2c(c1)/C(=C/c1c[nH]c3ccccc13)C(=O)N2`, the IC50 in experiment [1] is 342 nM; in experiment [2], 11.1 nM.

In experiment [3], `NS(=O)(=O)c1ccc(N/C=C2\C(=O)Nc3ccccc32)cc1` came in with an IC50 of 63 nM.

The compound `Cc1[nH]c2ccccc2c1/C=C1\C(=O)Nc2ccccc21` displayed an IC50 in experiment [2] of more than 10000 nM.

As for `NS(=O)(=O)c1ccc2c(c1)/C(=C/c1c[nH]c3ccc(O)cc13)C(=O)N2`, the figures for the IC50 in experiment [1] and in experiment [2] were 366 nM and 5.22 nM, respectively.

The values above are taken from ChEMBL document CHEMBL4765228, “Indole-like Trk receptor antagonists” (Eur J Med Chem, 2016).
